Results from patent US20080075796A1, “Compositions and Methods for Controlling Insects” (TyraTech, Inc., priority 2003, published 2008).
“And” between values parts separate entries of the source, which are not always exact repeats. Identical values can stand only once.

Key:
[1] = target: T1, Or43a receptor (Drosophila melanogaster, UniProt P81917, L154V); assay: Intracellular Ca^2+ mobilization in Schneider cells expressing Or43a receptor; format: cell-based; settings: before vs approximately 150 seconds after treatment
T1 construct: His (from vector pAc5.1/V5-His B) (C); expressed in transfected cells
T1 sequence (P81917 whole entry L154V): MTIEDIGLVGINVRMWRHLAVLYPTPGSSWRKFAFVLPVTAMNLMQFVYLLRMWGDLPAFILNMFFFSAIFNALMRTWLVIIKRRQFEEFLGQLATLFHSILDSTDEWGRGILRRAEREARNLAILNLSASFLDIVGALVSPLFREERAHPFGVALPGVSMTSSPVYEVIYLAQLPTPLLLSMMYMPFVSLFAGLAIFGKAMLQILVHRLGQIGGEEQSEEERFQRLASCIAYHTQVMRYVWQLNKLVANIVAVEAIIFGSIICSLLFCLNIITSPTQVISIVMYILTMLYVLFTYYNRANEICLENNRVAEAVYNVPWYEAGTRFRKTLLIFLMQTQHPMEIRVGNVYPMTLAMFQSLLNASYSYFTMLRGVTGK
Protocol: Intracellular calcium ion concentrations ([Ca^2+]i) are measured by using the acetoxymethyl (AM) ester of the fluorescent indicator fura-2 (Enan, et al., Biochem. Pharmacol vol 51, 447-454). In this study, cells expressing tyramine receptor are grown under standard conditions. A cell suspension is prepared in assay buffer (140 mM NaCL, 10 mM HEPES, 10 mM glucose, 5 mM KCl, 1 mM CaCl2, 1 mM MgCl2) and cell number adjusted to about 2×10^6 cells per ml. Briefly, about 1.0 ml cell suspension (about 2×10^6 cells) is incubated with about 5 μM Fura 2/AM for about 30 min at about 28° C. After incubation, the cells are pelleted at about 3700 rpm for about 10 sec at room temperature and then resuspended in about 1.5 ml assay buffer. [Ca^2+]i changes are analyzed in spectrofluorometer in the presence and absence of test chemicals. Excitation wave lengths are about 340 nm (generated by Ca^2+-bound fura-2) and about 380 nm (corresponding to Ca^2+-free fura-2). The fluorescence intensity is monitored at an emission wave length of about 510 nm. No absorbance of fluorescence artifacts are observed with any of the compounds used. The ratio of about 340/380 nm is calculated and plotted as a function of time.
Intracellular Ca^2+ levels are measured using the method described above in Example 3.
Changes in intracellular Ca^2+ levels are calculated based on the difference between the 340/380 fluorescence ratios before and after approximately 150 seconds of the treatment.

[2] = test system: farm ants; assay: Repellent effect on farm ants (treated filter paper); format: in vivo
Protocol: Adult insect are randomly selected for testing the repellent effect of compositions and are not individually marked. About 5 insects per replicate are used. About 3 replicates are used for each treatment. Untreated control tests are included with only solvent (acetone) application to an equal sized population/replications, held under identical conditions. A filter paper (about 80 cm^2) is treated with the composition (about 100 mg in […] acetone). After about 3 min of air drying, the filter paper is placed in a dish and repellency against insects is performed. Insects are released to the dish, one insect at a time at the far end of the dish. Using one or more stopwatches, the time spent on either the filter paper or the untreated surface of the dish is recorded up to about 300 seconds. Repellency ratio (RR) is calculated as follows: RR=[(time on control surface−time on treated surface)/total time of test].
The repellent effect of various plant essential oils is tested by treating a filter paper with the test oils. After about five minutes at room temperature, the paper is placed in a dish and ants are introduced one at a time. […] Oils are tested alone. Additionally, oils are mixed to form compositions, which are then tested.

[3] = test system: Or83b and Or43a receptors; assay: Interaction of plant essential oils with olfactory receptor binding site (membranes, ^3H-tyramine); parameters: species or system Drosophila melanogaster; settings: membranes incubated with ^3H-tyramine
Protocol: (§1) The cells expressing one of the olfactory receptors are used to investigate the interaction of plant essential oils with these receptors and the signaling cascade downstream of each receptor.
(§2) For the binding activity, membranes are prepared from each cell model and used to investigate the interaction of plant essential oil with the receptor binding site.

[4] = test system: Drosophila melanogaster Or83b olfactory receptor, SEQ ID NO: 6; assay: Interaction of plant essential oils with Or83b receptor binding site (3H-tyramine); settings: membranes, FIGS. 16, 18-21
Protocol: (§3) Total RNA is prepared from the head and antenna of wild type Drosophila melanogaster using Trizol Reagent (Invitrogen). They are homogenized in the Trizol using a motor driven teflon pestle and glass homogenizer. RNA is then prepared as per the manufacturer's instructions and includes removal of proteoglycans and polysaccharides by precipitation. The total RNA is reverse transcribed using oligo-dT as a primer and MuLV reverse transcriptase (Applied Biosystems). […] The Sense oligonucleotides contain Not I sites and the antisense oligonucleotides contain Sac II sites. Both restriction sites are indicated by underlined nucleotide. […] For PCR amplification of Or83b, Vent polymerase (New England Biolabs) is used with the following conditions: about 95° C., about 5 min for about 1 cycle; about 95° C., about 30 sec; and about 70° C., about 90 sec for about 40 cycles; and about 70° C., about 10 min for about 1 cycle. For PCR amplification of Or43a, the Failsafe PCR premix selection kit (Epicentre Technologies) is used with the following conditions: about 95° C., about 5 mill for about 1 cycle; about 95° C., about 30 sec; about 60° C., about 30 sec and about 70° C., about 90 sec for about 50 cycles; and about 70° C., about 10 min for about 1 cycle. […] The PCR products are digested with Sac II and Not I, gel purified and ligated into pAC 5.1/N5 His B (Invitrogen). Inserts are sequenced on both strands by automated fluorescent sequencing (Vanderbilt Cancer Center).
(§4) To address whether Or83b receptor and Or43a receptor contain a specific binding site for tyramine, membranes expressing Or83b receptor or Or43a receptor are prepared from cells expressing either receptor, as described above, and used for competitive binding with ^3H-tyramine. The binding assay protocol is exactly as described for cells expressing TyrR, as described above.
as §1, §2

[5] = test system: Drosophila melanogaster Or43a olfactory receptor, SEQ ID NO: 4; assay: Interaction of plant essential oils with Or43a receptor binding site (3H-tyramine); settings: membranes, FIGS. 16, 17, 19-21
Protocol: as §3, §4, §1, §2

[6] = Day 0, test up to about 300 seconds
[7] = Day 0, time on treated surface of up to about 300 seconds

| Compound | change in intracellular Ca^2+ levels (340/380 fluorescence ratio) [1] | repellency ([2]; in words) | interaction with the olfactory receptors [3] | interaction with the olfactory receptor [4] | interaction with the olfactory receptor [5] | Repellency %, R % ([2]; Day 0) | sec. on T surface [2, 6] | sec. on T surface [2, 7] | sec. on T surface ([2]; Day 1) | sec. on T surface ([2]; Day 1, test up to about 300 seconds) | Repellency %, R % ([2]; Day 1) |
| --- | --- | --- | --- | --- | --- | --- | --- | --- | --- | --- | --- |
| Cc1ccc(C(C)C)cc1O [carvacrol] | calcium mobilization | display repellency | interact with the olfactory receptors | interact | interact | – | – | – | – | – | – |
| C=C(C)[C@H]1CC=C(C)C(=O)C1 [d-carvone] | calcium mobilization | – | – | – | – | – | – | – | – | – | – |
| C=C(C)[C@H]1CC=C(C)CC1 [d-limonene] | calcium mobilization | – | interact with the olfactory receptors | interact | interact | 62.9% | 55.7 s | 55.7 s | 136.2 s and 136.4 s and 133.6 s | 136.2 s and 136.4 s and 133.6 s | – |
| CCOC(=O)c1ccccc1C(=O)OCC [diethyl phthalate] | – | – | interact with the olfactory receptors | interact | interact | – | – | – | – | – | – |
| C=CC(C)(O)CCC=C(C)C (stereo not drawn) [linalool] | calcium mobilization | – | interact with the olfactory receptors | interact | interact | 60.7% | – | 59.0 s | 111.2 s | – | 25.9% |
| C=CC(C)(CCC=C(C)C)OC(=O)c1ccccc1N (stereo not drawn) [linalyl anthranilate] | calcium mobilization | – | interact with the olfactory receptors | interact | interact | 69.2% | – | 46.2 s | 104.6 s | – | 30.7% |
| Cc1ccc(C(C)C)cc1 [p-cymene] | calcium mobilization | – | interact with the olfactory receptors | interact | interact | 42.5% | – | 86.2 s | 133.6 s | – | 10.9% |
| C=C(C)[C@@H]1CC=C(CO)CC1 [perillyl alcohol] | calcium mobilization | – | – | – | – | – | – | – | – | – | – |
| O=Cc1ccc2c(c1)OCO2 [piperonal] | decreases the intracellular Ca^2+ levels | – | interact with the olfactory receptors | interact | interact | 37.6% | – | 93.6 s | 125.8 s | – | 16.1% |
| OCc1ccc2c(c1)OCO2 [piperonyl alcohol] | calcium mobilization | – | interact with the olfactory receptors | interact | interact | – | – | – | – | – | – |
| NCc1ccc2c(c1)OCO2 [piperonyl amine] | calcium mobilization | – | interact with the olfactory receptors | interact | interact | 48.3% | – | 77.6 s | 111.2 s | – | 25.9% |
| C=C[C@H]1C[N@@]2CC[C@H]1C[C@H]2[C@H](O)c1ccnc2ccc(OC)cc12 [quinine] | calcium mobilization | – | – | – | – | – | – | – | – | – | – |
| O=C1C=CC(=O)C=C1 [quinone] | – | – | interact with the olfactory receptors | interact | interact | – | – | – | – | – | – |
| C/C=C/c1ccc(OC)cc1 [t-anethole] | – | – | interact with the olfactory receptors | interact | interact | – | – | – | – | – | – |
| CC1=CCC(C(C)(C)O)CC1 (stereo not drawn) [α-terpineol] | – | – | interact with the olfactory receptors | interact | interact | 26.9% | – | 109.6 s | – | – | – |
| l-carvone | calcium mobilization | – | – | – | – | – | – | – | – | – | – |
| lindenol [listing 1 of 2 here] | – | – | – | interact | interact | 04.0% | 144.2 s | – | – | – | – |
| lindenol [listing 2 of 2 here] | calcium mobilization | – | interact with the olfactory receptors | – | – | – | – | 144.2 s | – | – | – |
| terpinene 900 [listing 1 of 2 here] | – | – | – | interact | interact | – | – | – | – | – | – |
| terpinene 900 [listing 2 of 2 here] | calcium mobilization | – | interact with the olfactory receptors | – | – | – | – | – | – | – | – |
